From EP4603105A1, “PHARMACEUTICAL COMPOSITION CONTAINING CYCLIC COMPOUND HAVING SELECTIVE KRAS INHIBITORY EFFECT AGAINST HRAS AND NRAS” (CHUGAI SEIYAKU KABUSHIKI KAISHA, priority 2022, dated 2024)
*1 amine or outer side, *2 acyl side, *3 side chain or, on linkers, in order; H or OH if unused. Where a SMILES comes first, the peptide text is derived from it. Bridges are numbered along the chain shown (N, C = ends). [ ]: non-standard residue; d: D form. The star is where a group is joined. hPhe(3-Cl-4-CF3) = N[C@@H](CCc1ccc(C(F)(F)F)c(Cl)c1)C(=O)O; X19 = O=C([C@H](Cc1ccc(C(F)(F)F)cc1)N(CCCF)[*:1])[*:2]; NPrPhe(4-CF3) = CCCN[C@@H](Cc1ccc(C(F)(F)F)cc1)C(=O)O; NMeGly(cPent) = CN[C@H](C(=O)O)C1CCCC1; Pro(4,4-F2) = O=C(O)[C@@H]1CC(F)(F)CN1; NMeGly(cBu) = CN[C@H](C(=O)O)C1CCC1; Hyp = O=C(O)[C@@H]1C[C@@H](O)CN1; NMeD = CN[C@@H](CC(=O)O)C(=O)O; NMeL = CN[C@@H](CC(C)C)C(=O)O; Morpholide = C1CN(*)CCO1; NMeA = CN[C@@H](C)C(=O)O; Ac5c = NC1(C(=O)O)CCCC1; Aze = O=C(O)[C@@H]1CCN1; Ac4c = NC1(C(=O)O)CCC1; Sar = CNCC(=O)O

Columns and labels:
[1] = system: human lung cancer strain NCI-H441; type: cell-based
Summary of the method: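 Readout: […] after the ATP-based reagent. Compound: serial dilutions in dimethyl sulfoxide.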

[2] = molecular target: HRAS wild-type protein (Homo sapiens, UniProt P01112); assay: Binding to HRAS by surface plasmon resonance (SPR), KD and KD ratio to KRAS
Summary of the method: (§1)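 Affinity is measured by surface plasmon resonance at 30°C against captured, GDP-loaded RAS carrying a biotinylated Avi tag. Compounds are titrated by single-cycle kinetics, and KD comes from a 1:1 fit.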

[3] = molecular target: GDP-bound NRAS wild-type protein (Homo sapiens, UniProt P01111); assay: Binding to NRAS by surface plasmon resonance (SPR), KD and KD ratio to KRAS
Summary of the method: as §1

[4] = ratio of KD for HRAS wild-type protein to KD for KRAS
[5] = ratio of KD for GDP-bound NRAS wild-type protein to KD for KRAS
[6] = ratio of the KD value with respect to HRAS wild-type protein to the KD value with respect to KRAS
[7] = ratio of the KD value with respect to GDP-bound NRAS wild-type protein to the KD value with respect to KRAS

Sequence of HRAS wild-type protein (P01112 whole entry): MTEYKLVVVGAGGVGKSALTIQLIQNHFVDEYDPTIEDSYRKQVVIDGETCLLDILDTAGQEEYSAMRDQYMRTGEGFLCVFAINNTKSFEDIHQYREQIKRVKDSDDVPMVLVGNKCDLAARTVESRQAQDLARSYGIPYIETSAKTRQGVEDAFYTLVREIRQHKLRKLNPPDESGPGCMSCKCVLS
Sequence of GDP-bound NRAS wild-type protein (P01111 whole entry): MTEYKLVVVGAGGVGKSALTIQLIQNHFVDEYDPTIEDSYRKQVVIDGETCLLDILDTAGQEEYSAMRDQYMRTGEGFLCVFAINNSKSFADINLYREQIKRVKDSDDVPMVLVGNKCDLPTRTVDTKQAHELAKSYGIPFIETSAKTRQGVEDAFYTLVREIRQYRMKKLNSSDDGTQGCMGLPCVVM

SMILES | IC50 [1] [nM] | HRAS /KRAS [2, 4] | NRAS /KRAS [3, 5] | HRAS /KRAS [2, 6] | NRAS /KRAS [3, 7]
CCO[C@@H]1C[C@H]2C(=O)NC3(CC(C)(C)C3)C(=O)N(C)[C@@H](C3CCCC3)C(=O)N(C)[C@H](C(=O)N(C)C)CC(=O)N(C)[C@@H](CC(C)C)C(=O)N[C@@H]([C@@H](C)CC)C(=O)N(C)CC(=O)N(C)[C@H]3C/C=C\CCN(C3=O)[C@@H](Cc3ccc(C4CC4)cc3)C(=O)N(C)CC(=O)N[C@@H](CCc3ccc(C(F)(F)F)c(OC)c3)C(=O)N2C1 [PP2691] | 3.5 | A (a compound having 10 or more and less than 20 is denoted as A) | AA (a compound having 20 or more is denoted as AA) |  | 
CC[C@H](C)[C@@H]1NC(=O)[C@H](CC(C)C)N(C)C(=O)C[C@@H](C(=O)N2CCOCC2)N(C)C(=O)[C@H](C2CCCC2)N(C)C(=O)C2(CCCC2)NC(=O)[C@@H]2CCCN2C(=O)[C@H](CCc2ccc(C(F)(F)F)c(Cl)c2)NC(=O)CN(C)C(=O)[C@H](Cc2ccc(C(F)(F)F)cc2)N(CCCF)C(=O)CN(C)C(=O)CN(C)C1=O [PP0524] ([NMeL]I[Sar][Sar][X19][Sar][hPhe(3-Cl-4-CF3)]P[Ac5c][NMeGly(cPent)][NMeD]-Morpholide; lactam N-11) | 4.8 |  |  | C (A compound having a KD ratio of 0.1 or more and less than 3 is denoted as C) | B (a compound having 3 or more and less than 10 is denoted as B)
CCCN1C(=O)CN(C)C(=O)CN(C)C(=O)[C@H]([C@@H](C)CC)NC(=O)[C@H](C2CCC2)N(C)C(=O)C[C@@H](C(=O)N2CCOCC2)N(C)C(=O)[C@H](C2CCCC2)N(C)C(=O)C2(CCCC2)NC(=O)[C@@H]2CCCN2C(=O)[C@H](CCc2ccc(C(F)(F)F)c(Cl)c2)NC(=O)CN(C)C(=O)[C@@H]1Cc1ccc(C(F)(F)F)cc1 [PP0188] ([NMeGly(cBu)]I[Sar][Sar][NPrPhe(4-CF3)][Sar][hPhe(3-Cl-4-CF3)]P[Ac5c][NMeGly(cPent)][NMeD]-Morpholide; lactam N-11) | 3.9 | C (A compound having a KD ratio of 0.1 or more and less than 3 is denoted as C) | B (a compound having 3 or more and less than 10 is denoted as B) |  | 
CCO[C@@H]1C[C@H]2C(=O)NC3(CCC3)C(=O)N(C)[C@@H](C3CCCC3)C(=O)N3CCC[C@@H]3CC(=O)N(C)[C@@H](CC)C(=O)N[C@@H]([C@@H](C)CC)C(=O)N(C)CC(=O)N(C)[C@H]3C/C=C\CCN(C3=O)[C@@H](Cc3ccc(C(F)(F)F)cc3)C(=O)N(C)CC(=O)N[C@@H](CCc3cc(F)c(C(F)(F)F)c(F)c3)C(=O)N2C1 [PP1097] | 10.2 | B (a compound having 3 or more and less than 10 is denoted as B) | B (a compound having 3 or more and less than 10 is denoted as B) |  | 
CCO[C@@H]1C[C@H]2C(=O)NC3(CC(C)(C)C3)C(=O)N(C)[C@@H](C(CC)CC)C(=O)N(C)[C@H](C(=O)N3CCCC3)CC(=O)N(C)[C@@H](COC)C(=O)N[C@@H]([C@@H](C)CC)C(=O)N(C)CC(=O)N(C)[C@H]3C/C=C\CCN(C3=O)[C@@H](Cc3ccc(C(F)(F)F)cc3)C(=O)N(C)CC(=O)N[C@@H](CCc3ccc(Cl)c(Cl)c3)C(=O)N2C1 [PP2174] | 24 |  |  | A (a compound having 10 or more and less than 20 is denoted as A) | AA (a compound having 20 or more is denoted as AA)
CCOC[C@H]1C(=O)N[C@@H]([C@@H](C)CC)C(=O)N(C)CC(=O)N(C)[C@H]2C/C=C\CCN(C2=O)[C@@H](Cc2ccc(C(F)(F)F)cc2)C(=O)N(C)CC(=O)N[C@@H](CCc2cc(F)c(C(F)(F)F)c(F)c2)C(=O)N2C[C@@H](C)C[C@H]2C(=O)NC2(CC(C)(C)C2)C(=O)N(C)[C@@H](C2CCCC2)C(=O)N(C)[C@H](C(=O)N(C)CC)CC(=O)N1C [PP2042] | 5.9 |  |  | A (a compound having 10 or more and less than 20 is denoted as A) | A (a compound having 10 or more and less than 20 is denoted as A)
CCCN1C(=O)[C@@H]2CCN2C(=O)[C@H](C)N(C)C(=O)[C@H]([C@@H](C)CC)NC(=O)[C@H](CC(C)C)N(C)C(=O)C[C@@H](C(=O)N2CCOCC2)NC(=O)[C@H](C2CCCC2)N(C)C(=O)C2(CCC2)NC(=O)[C@@H]2CC(F)(F)CN2C(=O)[C@H](CCc2ccc(C(F)(F)F)c(Cl)c2)NC(=O)CN(C)C(=O)[C@@H]1Cc1ccc(C(F)(F)F)cc1 [PP0346] ([NMeL]I[NMeA][Aze][NPrPhe(4-CF3)][Sar][hPhe(3-Cl-4-CF3)][Pro(4,4-F2)][Ac4c][NMeGly(cPent)]D-Morpholide; lactam N-11) | 69.5 | B (a compound having 3 or more and less than 10 is denoted as B) | C (A compound having a KD ratio of 0.1 or more and less than 3 is denoted as C) |  | 
CCC[C@H]1C(=O)N[C@@H]([C@@H](C)CC)C(=O)N(C)CC(=O)N(C)[C@H]2C/C=C\CCN(C2=O)[C@@H](Cc2ccc(C(F)(F)F)cc2)C(=O)N(C)CC(=O)N[C@@H](CCc2ccc3sc(C)c(C)c3c2)C(=O)N2C[C@H](OCC)C[C@H]2C(=O)NC2(CC(C)(C)C2)C(=O)N(C)[C@@H](C(CC)CC)C(=O)N(C)[C@H](C(=O)N(C)C)CC(=O)N1C [PP2900] | 14.5 | A (a compound having 10 or more and less than 20 is denoted as A) | AA (a compound having 20 or more is denoted as AA) |  | 
CCC[C@H]1C(=O)N[C@@H](C(CC)CC)C(=O)N(C)CC(=O)N(C)[C@H]2C/C=C\CCN(C2=O)[C@@H](Cc2ccc(C)cc2)C(=O)N(C)CC(=O)N[C@@H](CCc2ccc(C(F)(F)F)c(Cl)c2)C(=O)N2C[C@H](OCC)C[C@H]2C(=O)NC2(CC(C)(C)C2)C(=O)N(C)[C@@H](C2CCCC2)C(=O)N(C)[C@H](C(=O)N(C)C)CC(=O)N1C [PP2209] | 37 |  |  | A (a compound having 10 or more and less than 20 is denoted as A) | A (a compound having 10 or more and less than 20 is denoted as A)
CCCN1C(=O)[C@@H]2CCN2C(=O)[C@H](C)N(C)C(=O)[C@H]([C@@H](C)CC)NC(=O)[C@H](CC(C)C)N(C)C(=O)C[C@@H](C(=O)N2CCOCC2)N(C)C(=O)[C@H](C2CCCC2)N(C)C(=O)C2(CCCC2)NC(=O)[C@H](C)NC(=O)[C@H](CCc2ccc(C(F)(F)F)c(Cl)c2)NC(=O)CN(C)C(=O)[C@@H]1Cc1ccc(C(F)(F)F)cc1 [PP0153] ([NMeL]I[NMeA][Aze][NPrPhe(4-CF3)][Sar][hPhe(3-Cl-4-CF3)]A[Ac5c][NMeGly(cPent)][NMeD]-Morpholide; lactam N-11) | 11.6 | C (A compound having a KD ratio of 0.1 or more and less than 3 is denoted as C) | C (A compound having a KD ratio of 0.1 or more and less than 3 is denoted as C) |  | 
CCCN1C(=O)CN(C)C(=O)CNC(=O)[C@H]([C@@H](C)CC)NC(=O)[C@H](CC(C)C)N(C)C(=O)C[C@@H](C(=O)N(C)C)NC(=O)[C@H](C2CCCC2)N(C)C(=O)C2(CCCC2)NC(=O)[C@@H]2C[C@@H](OCC)CN2C(=O)[C@H](CCc2ccc(C(F)(F)F)c(Cl)c2)NC(=O)CN(C)C(=O)[C@@H]1Cc1ccc(C(F)(F)F)cc1 [PP0365] ([NMeL]IG[Sar][NPrPhe(4-CF3)][Sar][hPhe(3-Cl-4-CF3)][Hyp](Et)[Ac5c][NMeGly(cPent)]D-NMe2; lactam N-11) | 42.6 | B (a compound having 3 or more and less than 10 is denoted as B) | B (a compound having 3 or more and less than 10 is denoted as B) |  | 
